Like-named read-outs stand apart in the source and are kept apart here.
Tests used:
[1] = test system: P. falciparum 3D7 parasites; test: P. falciparum growth inhibition assay, 1-cycle (72 h treatment), SYBR DNA staining (library screen at 2 μg/mL and dose-response); type: cell-based, Plasmodium falciparum
[2] = test system: T. gondii RH strain (RH-Tub-eYFP) tachyzoites; test: microbe, parasite or virus in culture; type: cell-based, Toxoplasma gondii
[3] = test system: P. falciparum 3D7 parasites; test: P. falciparum growth inhibition assay, 2-cycle (120 h treatment), delayed-death screen and dose-response; type: cell-based, Plasmodium falciparum
[4] = P. falciparum, 72 h, screen at 2 μg/mL, replicate 1
[5] = P. falciparum, 72 h, screen at 2 μg/mL, replicate 2
[6] = T. gondii, 72 h, screen at 2 μg/mL, replicate 1
[7] = T. gondii, 72 h, screen at 2 μg/mL, replicate 2
[8] = P. falciparum, 120 h, screen at 2 μg/mL, replicate 1
[9] = P. falciparum, 120 h, screen at 2 μg/mL, replicate 2
[10] = library screen at 2 μg/mL, 72 h, % growth, replicate 1
[11] = library screen at 2 μg/mL, 72 h, % growth, replicate 2
[12] = library screen at 2 μg/mL, 120 h, % growth, replicate 1
[13] = library screen at 2 μg/mL, 120 h, % growth, replicate 2
[14] = P. falciparum, 72 h, parasite screen 2 μg/mL, % growth, replicate 1
[15] = P. falciparum, 72 h, parasite screen 2 μg/mL, % growth, replicate 2
[16] = T. gondii, 72 h, parasite screen 2 μg/mL, % growth, replicate 1
[17] = T. gondii, 72 h, parasite screen 2 μg/mL, % growth, replicate 2
[18] = P. falciparum, 120 h, parasite screen 2 μg/mL, % growth, replicate 1
[19] = P. falciparum, 120 h, parasite screen 2 μg/mL, % growth, replicate 2

Question: For CC(=O)OC[C@@H](NC(=O)C(Cl)Cl)[C@H](O)c1ccc([N+](=O)[O-])cc1 [Chloramphenicol acetate], which Pf_72h_%Growth_Rep1 [1, 4] is on record?
Answer: 90.71%

Question: What about the Pf_72h_%Growth_Rep2 [1, 5] of the same compound?
Answer: 92.14%

Question: And the Tg_72h_%Growth_Rep1 [2, 6]?
Answer: 132.16%

Question: And the Tg_72h_%Growth_Rep2 [2, 7]?
Answer: 92.80%

Question: What about the Pf_120h_%Growth_Rep1 [3, 8] of the same compound?
Answer: 100.35%

Question: And the Pf_120h_%Growth_Rep2 [3, 9]?
Answer: 90.22%

Question: How did the Pf_72h_%Growth_Rep1 [1, 10] turn out when Bafilomycin D was run?
Answer: 3.99%

Question: What about the Pf_72h_%Growth_Rep2 [1, 11] of the same compound?
Answer: 4.20%

Question: And the Tg_72h_%Growth_Rep1 [2, 10]?
Answer: 0.37%

Question: And the Tg_72h_%Growth_Rep2 [2, 11]?
Answer: -0.37%

Question: And the Pf_120h_%Growth_Rep1 [3, 12]?
Answer: 2.60%

Question: And the Pf_120h_%Growth_Rep2 [3, 13]?
Answer: -8.55%

Question: Which results are given for CC=C(C)c1c(Cl)c(O)c(C)c2c1Oc1c(Cl)c(O)c(Cl)c(C)c1C(=O)O2 [BIA-N1159]?
Answer: Pf_72h_%Growth_Rep1 ([1]; P. falciparum 3D7, 72 h, parasite screen at 2 μg/mL, % growth, replicate 1): 85.21%; Pf_72h_%Growth_Rep2 ([1]; P. falciparum 3D7, 72 h, parasite screen at 2 μg/mL, % growth, replicate 2): 97.34%; Tg_72h_%Growth_Rep1 ([2]; T. gondii, 72 h, parasite screen at 2 μg/mL, % growth, replicate 1): 86.78%; Tg_72h_%Growth_Rep2 ([2]; T. gondii, 72 h, parasite screen at 2 μg/mL, % growth, replicate 2): 84.63%; Pf_120h_%Growth_Rep1 ([3]; P. falciparum 3D7, 120 h, parasite screen at 2 μg/mL, % growth, replicate 1): 97.37%; Pf_120h_%Growth_Rep2 ([3]; P. falciparum 3D7, 120 h, parasite screen at 2 μg/mL, % growth, replicate 2): 135.76%

Question: Which results are given for CC[C@H](C)[C@H]1O[C@]2(C=C[C@@H]1C)C[C@@H]1C[C@@H](C/C=C(\C)[C@@H](O)[C@@H](C)/C=C/C=C3\CO[C@@H]4[C@H](O)C(C)=C[C@@H](C(=O)O1)[C@]34O)O2 [Avermectin B1a aglycone]?
Answer: Pf_72h_%Growth_Rep1 [1, 10]: 81.70%; Pf_72h_%Growth_Rep2 [1, 11]: 78.59%; Tg_72h_%Growth_Rep1 [2, 10]: 137.71%; Tg_72h_%Growth_Rep2 [2, 11]: 97.71%; Pf_120h_%Growth_Rep1 [3, 12]: 81.78%; Pf_120h_%Growth_Rep2 [3, 13]: 74.45%

Question: For CC1=C[C@H]2C(=O)O[C@H]3C[C@@H](C/C=C(/C)[C@@H](O)[C@@H](C)/C=C\C=C4CO[C@H]([C@@H]1O)[C@@]42O)O[C@@]1(C=C[C@H](C)[C@@H](C2CCCCC2)O1)C3 [Doramectin aglycone], which Pf_72h_%Growth_Rep1 [1, 10] is on record?
Answer: 80.09%

Question: What about the Pf_72h_%Growth_Rep2 [1, 11] of the same compound?
Answer: 78.66%

Question: And the Tg_72h_%Growth_Rep1 [2, 10]?
Answer: 167.81%

Question: What about the Tg_72h_%Growth_Rep2 [2, 11] of the same compound?
Answer: 107.39%

Question: What about the Pf_120h_%Growth_Rep1 [3, 12] of the same compound?
Answer: 86.97%

Question: And the Pf_120h_%Growth_Rep2 [3, 13]?
Answer: 81.83%

Question: Which results are given for CCC(=O)[C@@H](C)[C@@H](O)[C@H](C)C[C@@H](C)[C@H]1OC(=O)C[C@@]2(O)CC=C(C)[C@H](O2)/C(C)=C/CCC[C@@H](O[C@H]2C[C@@H](OC(N)=O)[C@H](O)[C@@H](C)O2)/C=C/[C@H](C)C[C@H]1C [Venturicidin A]?
Answer: Pf_72h_%Growth_Rep1 [1, 4]: 8.64%; Pf_72h_%Growth_Rep2 [1, 5]: 1.38%; Tg_72h_%Growth_Rep1 [2, 6]: -1.24%; Tg_72h_%Growth_Rep2 [2, 7]: 0.71%; Pf_120h_%Growth_Rep1 [3, 8]: 19.97%; Pf_120h_%Growth_Rep2 [3, 9]: -12.87%

Question: For CC[C@H]1CCC[C@H](O)[C@@H](C)C(=O)C2=C[C@@H]3[C@@H](C=C(C)[C@@H]4C[C@@H](O[C@@H]5O[C@@H](C)[C@H](OC)[C@@H](OC)[C@H]5OC)C[C@@H]34)[C@@H]2CC(=O)O1 [Spinosyn D 17-pseudoaglycone], which Pf_72h_%Growth_Rep1 [1, 14] is on record?
Answer: 18.47%

Question: What about the Pf_72h_%Growth_Rep2 [1, 15] of the same compound?
Answer: 12.37%

Question: What about the Tg_72h_%Growth_Rep1 [2, 16] of the same compound?
Answer: 111.08%

Question: What about the Tg_72h_%Growth_Rep2 [2, 17] of the same compound?
Answer: 100.61%

Question: What about the Pf_120h_%Growth_Rep1 [3, 18] of the same compound?
Answer: 8.86%

Question: What about the Pf_120h_%Growth_Rep2 [3, 19] of the same compound?
Answer: 19.25%

Question: How did the Pf_72h_%Growth_Rep1 [1] turn out when CO[C@H]1C[C@H](O[C@H]2[C@H](C)O[C@@H](O[C@@H]3/C(C)=C/C[C@@H]4C[C@@H](C[C@]5(C=C[C@H](C)[C@@H](C(C)C)O5)O4)OC(=O)[C@@H]4C=C(C)[C@@H](O)[C@H]5OC/C(=C\C=C\[C@@H]3C)[C@]54O)C[C@@H]2OC)O[C@@H](C)[C@H]1NC(C)=O [Eprinomectin B1b] was run?
Answer: 56.32%

Question: And the Pf_72h_%Growth_Rep2 [1]?
Answer: 35.21%

Question: What about the Tg_72h_%Growth_Rep1 [2] of the same compound?
Answer: 157.07%

Question: And the Tg_72h_%Growth_Rep2 [2]?
Answer: 101.19%

Question: And the Pf_120h_%Growth_Rep1 [3]?
Answer: 33.01%

Question: And the Pf_120h_%Growth_Rep2 [3]?
Answer: 22.71%

Question: COc1cc(O)c2c(c1)C(=O)c1cc3c(c(O)c1C2=O)C(OC1OC(C)C(OC)C(O)C1OC)C(OC)C(C)(O)C3=O (stereo not drawn) [Steffimycin B] was tested. Which Pf_72h_%Growth_Rep1 [1, 14] did it give?
Answer: 70.82%

Question: And the Pf_72h_%Growth_Rep2 [1, 15]?
Answer: 45.75%

Question: And the Tg_72h_%Growth_Rep1 [2, 16]?
Answer: 26.05%

Question: And the Tg_72h_%Growth_Rep2 [2, 17]?
Answer: 22.83%

Question: And the Pf_120h_%Growth_Rep1 [3, 18]?
Answer: 57.65%

Question: What about the Pf_120h_%Growth_Rep2 [3, 19] of the same compound?
Answer: 80.04%

Reference: paper PMC12396409, “Screening and hit evaluation of a microbial metabolite library against the pathogenic Plasmodium falciparum and Toxoplasma gondii parasites” (International Journal for Parasitology: Drugs and Drug …, 2025)
